Legend:
Format in all cases: cell-based
PepT1 [1] = target: T1, PepT1 (Homo sapiens, UniProt P46059); assay: PepT1 transporter-mediated cellular uptake (substrate test); conditions: uptake 3 min, 37° C.
T1 construct: expressed in transfected cells
T1 sequence (P46059 1-708): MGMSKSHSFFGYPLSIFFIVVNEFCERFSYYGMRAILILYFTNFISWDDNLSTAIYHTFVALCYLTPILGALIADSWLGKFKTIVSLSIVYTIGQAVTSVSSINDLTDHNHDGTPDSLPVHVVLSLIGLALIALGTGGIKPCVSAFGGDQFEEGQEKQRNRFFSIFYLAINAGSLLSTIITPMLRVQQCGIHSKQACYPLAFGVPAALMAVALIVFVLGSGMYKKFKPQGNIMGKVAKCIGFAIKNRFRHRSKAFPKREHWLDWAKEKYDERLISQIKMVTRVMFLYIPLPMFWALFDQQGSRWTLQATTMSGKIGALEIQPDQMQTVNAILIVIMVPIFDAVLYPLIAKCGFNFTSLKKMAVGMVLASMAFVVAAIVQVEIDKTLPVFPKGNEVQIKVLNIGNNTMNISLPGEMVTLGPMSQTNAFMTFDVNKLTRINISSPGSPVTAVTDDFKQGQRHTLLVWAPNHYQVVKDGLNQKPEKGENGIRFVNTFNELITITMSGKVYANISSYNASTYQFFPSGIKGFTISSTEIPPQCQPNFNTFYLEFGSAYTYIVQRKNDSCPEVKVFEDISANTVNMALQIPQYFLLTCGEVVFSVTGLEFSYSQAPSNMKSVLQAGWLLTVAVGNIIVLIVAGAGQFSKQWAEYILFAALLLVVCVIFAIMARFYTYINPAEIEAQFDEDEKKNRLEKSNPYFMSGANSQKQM
Experimental: (§1) DMSO (0.5%) was the solvent control (SC) and the known inhibitor for the positive control (PC) was losartan (200 μM). Data were fit to either the Michaelis-Menten equation for uptake or the Hill equation for inhibition using the solvent control to define the top and the positive control inhibitor to define the bottom. Symbols represent the mean±SEM, n=3.
(§2) Human OAT1 (SLC22A6) and OAT3 (SLC22A8) overexpressing HEK-293 cells and control cells without transfected transporter (Corning® TransportoCells™) are plated to 24-well plates and cellular uptake of 10 to 100 μg/mL of a Compound of the Disclosure is measured in the absence and presence of transporter inhibitors. Uptake of a Compound of the Disclosure into control cells is measured only without chemical inhibitors. […] Cells are grown in DMEM (Gibco 4196, high glucose, without sodium pyruvate) supplemented with MEM non-essential amino acids and 10% fetal bovine serum. Cells are re-fed with fresh medium after attachment (4-6 hours post-seeding). Cell are plated at a density of 4×10^5/well in 24-well plates coated with poly-D-lysine. Transporter assays are conducted in 400 μL of HBSS supplemented with 10 mM Hepes, pH 7.4
The known probe substrates used as positive controls are 3 μM chlorothiazide for OAT1, 2 μM estrone-3-sulfate for OAT3, 10 μM gabapentin for LAT1, 50 μM Gly-Sar for PepT1, 500 μM thiophene-2-glyoxylic acid for MCT1. […]

PepT1 [2] = target: T1, PepT1; assay: Inhibition of PepT1 uptake of known substrate Gly-Sar; conditions: probe substrate Gly-Sar 50 μM
Experimental: as §1, with “FIG. 2(d) is a line graph showing the concentration-inhibition curves for the inhibition of uptake of known substrate dipeptide Gly-Sar (50 μM) for PepT1. DMSO” for “DMSO”
The known probe substrates used as positive controls are 3 μM chlorothiazide for OAT1, 2 μM estrone-3-sulfate for OAT3, 10 μM gabapentin for LAT1, 50 μM Gly-Sar for PepT1, 500 μM thiophene-2-glyoxylic acid for MCT1.
The IC50 value for the test item is determined by fitting the Hill equation in the following form:
where A % is the percent activity remaining (the mean cellular uptake observed in the solvent control sample set to 100% and the mean cellular uptake observed in the presence of the positive control inhibitor set to 0%), Top and Bottom are the upper and lower plateau of A %. [I] is the inhibitor concentration and IC50 is the inhibitor concentration where the remaining activity is at the midpoint between the Top and Bottom.

OAT1 (SLC22A6) [3] = target: T2, OAT1 (SLC22A6) (Homo sapiens, UniProt Q4U2R8); assay: OAT1 transporter-mediated cellular uptake (substrate test); conditions: uptake 5 min, 37° C.
T2 construct: host or cells: HEK-293
T2 sequence (Q4U2R8 1-563): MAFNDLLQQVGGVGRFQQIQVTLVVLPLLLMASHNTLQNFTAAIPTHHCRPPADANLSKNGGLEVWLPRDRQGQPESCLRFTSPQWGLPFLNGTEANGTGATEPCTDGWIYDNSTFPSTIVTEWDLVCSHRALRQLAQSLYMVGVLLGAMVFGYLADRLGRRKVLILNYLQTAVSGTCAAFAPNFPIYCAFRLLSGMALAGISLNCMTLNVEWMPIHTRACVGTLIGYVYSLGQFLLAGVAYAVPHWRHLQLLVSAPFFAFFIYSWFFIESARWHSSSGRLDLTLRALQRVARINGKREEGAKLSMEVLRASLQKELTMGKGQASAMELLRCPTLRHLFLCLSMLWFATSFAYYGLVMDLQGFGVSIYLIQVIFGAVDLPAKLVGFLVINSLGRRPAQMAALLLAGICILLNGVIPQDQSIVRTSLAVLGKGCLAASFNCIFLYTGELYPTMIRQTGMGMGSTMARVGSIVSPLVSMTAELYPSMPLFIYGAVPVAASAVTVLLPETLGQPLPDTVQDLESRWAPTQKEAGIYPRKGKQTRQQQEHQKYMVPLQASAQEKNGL
Experimental: as §1, with “inhibitor diclofenac (100 μM) was” for “inhibitor for”, “control (PC).” for “control (PC) was losartan (200 μM).”, “the Michalis-Menten” for “the Michaelis-Menten”
as §2, with “7.4 […]” for “7.4”
Enzyme kinetic data for uptake and metabolism of a Compound of the Disclosure is analysed by fitting the Michaelis-Menten equation to the data. […]

OAT1 (SLC22A6) [4] = target: T2, OAT1 (SLC22A6); assay: Inhibition of OAT1 uptake of known substrate chlorothiazide; conditions: probe substrate chlorothiazide 3 μM
Experimental: as §1, with “inhibitor diclofenac (100 μM) was” for “inhibitor for”, “control (PC).” for “control (PC) was losartan (200 μM).”, “the Michalis-Menten” for “the Michaelis-Menten”
as §2, with “7.4 […]” for “7.4”
The IC50 value for the test item is determined by fitting the Hill equation in the following form: […]

**Q.** What does the source list for `CC(=O)N[C@@H](CC(C)C)C(=O)O` [N-acetyl-L-leucine]?
**A.** substrate of PepT1 (uptake) (PepT1 [1]): not a substrate; IC50 (PepT1 [2]): 0.74 mM; substrate of OAT1 (uptake) (OAT1 (SLC22A6) [3]): substrate; IC50 (OAT1 (SLC22A6) [4]): 6.2 mM

Source: patent US20240208895A1, “BRANCHED-CHAIN AMINO ACID DERIVATIVES TO TREAT DISEASE” (INTRABIO LTD., priority 2021, published 2024)
